Source: ChEMBL document CHEMBL2407044, “Synthesis, Antiplasmodial Activity, and β-Hematin Inhibition of Hydroxypyridone-Chloroquine Hybrids” (ACS Med Chem Lett, 2013)
Active and inactive are the calls of the source. The calls are words filed in the database; no cut-off is given here.

What was measured:
[1] = Inhibition of beta-hematin formation after 60 mins relative to beta-hematin; type: functional
Plasmodium falciparum [2] = test: Antiplasmodial activity against chloroquine-resistant Plasmodium falciparum K1 assessed as parasite growth inhibition after 24 hrs by [3H]-hypoxathine incorporation assay; type: functional, organism-based
Plasmodium falciparum [3] = test: Antiplasmodial activity against chloroquine-sensitive Plasmodium falciparum 3D7 assessed as parasite growth inhibition after 24 hrs by [3H]-hypoxathine incorporation assay; type: functional, organism-based
KB = test: Cytotoxicity against human KB cells after 72 hrs by Alamar blue assay; type: cell-based
Plasmodium falciparum [4] = test: Antiplasmodial activity against chloroquine-resistant Plasmodium falciparum W2 assessed as parasite survival after 2 days by YOYO-1 staining-based flow cytometric analysis; type: functional, organism-based; details: W2, 48 h
[5] = Inhibition of beta-hematin formation at 10 times parental IC50 after 60 mins; type: functional

For CCc1c(OCc2ccccc2)c(=O)ccn1CCNc1ccnc2cc(Cl)ccc12, the IC50 [1] was 0.5 equiv, the IC50 (Plasmodium falciparum [2]; Plasmodium falciparum, K1) was 8430 nM and the IC50 (Plasmodium falciparum [3]) was 950 nM. It also gave an IC50 (KB; Homo sapiens, KB, 72 h) of 51000 nM and an IC50 (Plasmodium falciparum [4]) of 2590 nM.

With CCc1c(O)c(=O)ccn1CCCCNc1ccnc2cc(Cl)ccc12 the IC50 [1] was 0.98 equiv, the IC50 (Plasmodium falciparum [2]; Plasmodium falciparum, K1) was 270 nM and the IC50 (Plasmodium falciparum [3]) was 50 nM. The IC50 (KB; Homo sapiens, KB, 72 h) was 76000 nM and the IC50 (Plasmodium falciparum [4]) was 160 nM.

Cc1c(OCc2ccccc2)c(=O)ccn1CCCCCCNc1ccnc2cc(Cl)ccc12 showed an IC50 [1] of 0.25 equiv, an IC50 (Plasmodium falciparum [2]; Plasmodium falciparum, K1) of 4380 nM and an IC50 (Plasmodium falciparum [3]) of 35700 nM. It also gave an IC50 (KB; Homo sapiens, KB, 72 h) of 158000 nM and an IC50 (Plasmodium falciparum [4]) of 390 nM.

With CCCCCCCCn1ccc(=O)c(OCc2ccccc2)c1C the inhibition [5] was “inactive”.

In the case of Cc1c(OCc2ccccc2)c(=O)ccn1C(C)C, the inhibition [5] is reported as “inactive”.

With COc1c(C)n(CCCCNc2ccnc3cc(Cl)ccc23)ccc1=O the IC50 [1] was 0.75 equiv, the IC50 (Plasmodium falciparum [2]; Plasmodium falciparum, K1) was 220 nM and the IC50 (Plasmodium falciparum [3]) was 70 nM. The IC50 (KB; Homo sapiens, KB, 72 h) was 27000 nM and the IC50 (Plasmodium falciparum [4]) was 760 nM.

In the case of CCc1c(OC)c(=O)ccn1CCCCNc1ccnc2cc(Cl)ccc12, the IC50 [1] is reported as 1.71 equiv and the IC50 (Plasmodium falciparum [4]) is reported as 210 nM.

Work on CCc1c(OCc2ccccc2)c(=O)ccn1CCCNc1ccnc2cc(Cl)ccc12 yielded an IC50 [1] of 0.41 equiv, an IC50 (Plasmodium falciparum [2]; Plasmodium falciparum, K1) of 71600 nM and an IC50 (Plasmodium falciparum [3]) of 120 nM. It also gave an IC50 (KB; Homo sapiens, KB, 72 h) of 15000 nM and an IC50 (Plasmodium falciparum [4]) of 2320 nM.

Work on Cc1c(OCc2ccccc2)c(=O)ccn1CCNc1ccnc2cc(Cl)ccc12 yielded an IC50 [1] of 0.93 equiv, an IC50 (Plasmodium falciparum [2]; Plasmodium falciparum, K1) of 3150 nM and an IC50 (Plasmodium falciparum [3]) of 490 nM. It also gave an IC50 (KB; Homo sapiens, KB, 72 h) of 54000 nM and an IC50 (Plasmodium falciparum [4]) of 9930 nM.

Compound CCc1c(OCc2ccccc2)c(=O)ccn1CCCCCCNc1ccnc2cc(Cl)ccc12 [listing 1 of 2 here] has an IC50 (Plasmodium falciparum [2]; Plasmodium falciparum, K1) of 100 nM, an IC50 (Plasmodium falciparum [3]) of 10 nM and an IC50 (KB; Homo sapiens, KB, 72 h) of 7000 nM.

CCN(CC)CCCC(C)Nc1ccnc2cc(Cl)ccc12 (stereo not drawn) [CHLOROQUINE] showed an IC50 [1] of 1.9 equiv and an IC50 (KB; Homo sapiens, KB, 72 h) of 34000 nM.

With CCCCCCCCn1ccc(=O)c(O)c1C the IC50 (Plasmodium falciparum [2]; Plasmodium falciparum, K1) was 1800 nM and the IC50 (Plasmodium falciparum [3]) was 2380 nM.

Compound Cc1c(O)c(=O)ccn1CCNc1ccnc2cc(Cl)ccc12 has an IC50 [1] of 2.9 equiv, an IC50 (Plasmodium falciparum [2]; Plasmodium falciparum, K1) of 32600 nM and an IC50 (Plasmodium falciparum [3]) of 10800 nM. For the same compound, the IC50 (Plasmodium falciparum [4]) was 280 nM.

Compound CCc1c(OC)c(=O)ccn1CCCCCCNc1ccnc2cc(Cl)ccc12 has an IC50 [1] of 0.47 equiv and an IC50 (Plasmodium falciparum [4]) of 220 nM.

Compound Cc1c(O)c(=O)ccn1CCCCNc1ccnc2cc(Cl)ccc12 has an IC50 [1] of 0.66 equiv, an IC50 (Plasmodium falciparum [2]; Plasmodium falciparum, K1) of 70 nM and an IC50 (Plasmodium falciparum [3]) of 30 nM. It also gave an IC50 (KB; Homo sapiens, KB, 72 h) of 185000 nM and an IC50 (Plasmodium falciparum [4]) of 80 nM.

CCc1c(O)c(=O)ccn1CCNc1ccnc2cc(Cl)ccc12 gave an IC50 [1] of 1.1 equiv, an IC50 (Plasmodium falciparum [2]; Plasmodium falciparum, K1) of 890 nM and an IC50 (Plasmodium falciparum [3]) of 400 nM. The IC50 (Plasmodium falciparum [4]) was 1240 nM.

For Cc1c(OCc2ccccc2)c(=O)ccn1CCCNc1ccnc2cc(Cl)ccc12, the IC50 [1] was 0.49 equiv, the IC50 (Plasmodium falciparum [2]; Plasmodium falciparum, K1) was 3570 nM and the IC50 (Plasmodium falciparum [3]) was 280 nM. For the same compound, the IC50 (KB; Homo sapiens, KB, 72 h) was 67000 nM and the IC50 (Plasmodium falciparum [4]) was 2150 nM.

Work on Cc1c(O)c(=O)ccn1CCCCCCNc1ccnc2cc(Cl)ccc12 yielded an IC50 [1] of 0.18 equiv, an IC50 (Plasmodium falciparum [2]; Plasmodium falciparum, K1) of 160 nM and an IC50 (Plasmodium falciparum [3]) of 390 nM. It also gave an IC50 (KB; Homo sapiens, KB, 72 h) of 4000 nM and an IC50 (Plasmodium falciparum [4]) of 70 nM.

For CCc1c(O)c(=O)ccn1CCCNc1ccnc2cc(Cl)ccc12, the IC50 [1] was 1.3 equiv, the IC50 (Plasmodium falciparum [2]; Plasmodium falciparum, K1) was 380 nM and the IC50 (Plasmodium falciparum [3]) was 120 nM. For the same compound, the IC50 (KB; Homo sapiens, KB, 72 h) was 55000 nM and the IC50 (Plasmodium falciparum [4]) was 540 nM.

With CCCCCCn1ccc(=O)c(OCc2ccccc2)c1C the inhibition [5] was “inactive”.

Work on CCc1c(O)c(=O)ccn1CCCCCCNc1ccnc2cc(Cl)ccc12 yielded an IC50 [1] of 0.49 equiv, an IC50 (Plasmodium falciparum [2]; Plasmodium falciparum, K1) of 610 nM and an IC50 (Plasmodium falciparum [3]) of 80 nM. The IC50 (KB; Homo sapiens, KB, 72 h) was 44000 nM and the IC50 (Plasmodium falciparum [4]) was 90 nM.

With CCc1c(OCc2ccccc2)c(=O)ccn1CCCCCCNc1ccnc2cc(Cl)ccc12 [listing 2 of 2 here] the IC50 [1] was 0.16 equiv, the IC50 (Plasmodium falciparum [2]) was 80 nM and the IC50 (KB; kb) was 4000 nM. For the same compound, the IC50 (Plasmodium falciparum [4]) was 20 nM.

For COc1cc([C@@H]2c3cc4c(cc3[C@H](O)[C@H]3COC(=O)[C@H]23)OCO4)cc(OC)c1OC [PODOFILOX], the IC50 (KB; Homo sapiens, KB, 72 h) was 0.7 nM.

In the case of Cc1c(OCc2ccccc2)c(=O)ccn1C, the inhibition [5] is reported as “inactive”.

For Cc1c(OCc2ccccc2)c(=O)ccn1CCCCNc1ccnc2cc(Cl)ccc12, the IC50 [1] was 0.27 equiv, the IC50 (Plasmodium falciparum [2]; Plasmodium falciparum, K1) was 2200 nM and the IC50 (Plasmodium falciparum [3]) was 50 nM. For the same compound, the IC50 (KB; Homo sapiens, KB, 72 h) was 119000 nM and the IC50 (Plasmodium falciparum [4]) was 1120 nM.

Compound CCc1c(OCc2ccccc2)c(=O)ccn1CCCCNc1ccnc2cc(Cl)ccc12 has an IC50 [1] of 0.19 equiv, an IC50 (Plasmodium falciparum [2]; Plasmodium falciparum, K1) of 130 nM and an IC50 (Plasmodium falciparum [3]) of 4 nM. For the same compound, the IC50 (KB; Homo sapiens, KB, 72 h) was 9000 nM and the IC50 (Plasmodium falciparum [4]) was 100 nM.

With COc1c(C)n(CCCCCCNc2ccnc3cc(Cl)ccc23)ccc1=O the IC50 [1] was 1.07 equiv, the IC50 (Plasmodium falciparum [2]; Plasmodium falciparum, K1) was 2800 nM and the IC50 (Plasmodium falciparum [3]) was 130 nM. The IC50 (KB; Homo sapiens, KB, 72 h) was 47000 nM and the IC50 (Plasmodium falciparum [4]) was 90 nM.
